According to patent publication US8865683B2, “Active compound combinations having insecticidal properties” (priority 2003, dated 2014):

Test system: green peach aphid (Myzus persicae)
Experiment: Myzus persicae test (cabbage leaf dip)
Type: in vivo
Conditions: cabbage leaves (Brassica oleracea) dipped
Description: The expected action for a given combination of two active compounds can be calculated according to S. R. Colby, Weed, 15 (1967), 20-22): […]
If • X is the kill rate, expressed as a percentage of the untreated control, when employing active compound A at an application rate of m g/ha or in a concentration of m ppm, • Y is the kill rate, expressed as a percentage of the untreated control, when employing active compound B at an application rate of n g/ha or in a concentration of n ppm and • E is the kill rate, expressed as a percentage of the untreated control, when employing active compounds A and B at application rates of m and n g/ha or in a concentration of m and n ppm, then
If the actual insecticidal kill rate exceeds the calculated value, the action of the combination is superadditive, i.e. a synergistic effect is present. In this case, the actually observed kill rate must exceed the value calculated using the above formula for the expected kill rate (E).
After the desired period of time, the kill in % is determined. 100% means that all animals have been killed; 0% means that none of the animals have been killed. […]
After the desired period of time, the kill in % is determined. […] The determined kill ratios are entered into Colby's formula (see page 42).

CCOP(=S)(OCC)Oc1nc(Cl)c(Cl)cc1Cl [(2-2) chlorpyrifos, chlorpyrifos]
Kill rate in % after 1d, found (0.8 ppm active compound): 65%

Cc1cc(Cl)cc(C(=O)NC(C)C)c1NC(=O)c1cc(C(F)(F)F)nn1-c1ncccc1Cl [(I-1-9)]
Kill rate in % after 1d, found (4 ppm active compound): 0%
